The conditions of data set [1]: 0.1 mg/kg FFA twice daily with stiripentol plus clobazam, with or without valproate, steady state; ref Prescribing information: https://www.fintepla.com/; cited from earlier work.
The target in another data set is T1, rCYP2D6 (Homo sapiens, UniProt P10635).
T1 construct: purchased Cypex, Ltd; host or cells: Escherichia coli
The data set can be described thus: Reaction phenotyping with rCYP2D6. In kind it is in vitro ADME. The conditions noted are these: rCYP2D6, 60 min. As for the experimental part:
For FFA and nFFA reaction phenotyping experiments, LC‐MS/MS experiments were performed using an API 4000 QTRAP or QTRAP 5500 mass spectrometer (SCIEX) with positive electrospray ionization. Chromatography was performed using an Atlantis dC18 analytical column (100 × 2.1 mm, 5 µm; Waters Corporation). Mobile phases were 0.2% v/v formic acid in water and 0.2% v/v formic acid in methanol. FFA and nFFA were eluted at a flow rate of 0.5 mL/min with a linear gradient of 40%−95% methanol from 0.20−2.1 min. The mass transitions monitored were 232.0>109.0 for FFA, 204.0>159.0 for nFFA, 348.0>330.0 for 1’‐hydroxymidazolam‐d4 internal standard (FFA reaction phenotyping), and 262.0>244.0 for hydroxybupropion‐d6 internal standard (nFFA reaction phenotyping). Analyst Instrument Control and Data Processing software (v. 1.6.1) was used for collecting and integrating data (SCIEX). Calibration curves ranging from 1.25 µM−0.01 µM were used to quantify nFFA. Relative quantitation was used to approximate the amount of FFA test material used.
Methods used to evaluate the role of CYP450s in the metabolism of FFA have been described.[22], [23], [24] […] Supernatant fractions were analyzed by LC‐MS/MS.

A short description of data set [2]: Metabolic stability and metabolite identity, dog liver S9 fractions. In kind it is in vitro ADME. The conditions noted are these: pH 7.4; 1 µM FFA, dog liver S9 fractions 2 mg protein/mL. The protocol:
LC‐MS/MS analyses to assess metabolic stability and identify the transporter substrate were performed using an API 4000 QTRAP mass spectrometer (SCIEX, Framingham, MA) with electrospray ionization in positive mode. Chromatography was performed using an Atlantis dC18 analytical column (100 × 2.1 mm, 5 µm; Waters Corporation, Milford, MA). Mobile phases were 0.2% v/v formic acid in water and 0.2% v/v formic acid in acetonitrile. For metabolic stability experiments, FFA and metabolites were eluted at a flow rate of 0.6 mL/min, with a linear gradient of 20%−80% acetonitrile from 0.30−2.0 min. […] The mass transitions monitored were 232.0 > 159.0 for FFA and 348.0 > 330.0 for 1ʹ‐OH‐midazolam‐d4 internal standard. […]
(§1) FFA (1 or 10 µM) was incubated with liver and intestinal S9 fractions (2 mg protein/mL) at 37 ± 1°C in 0.2‐mL incubation mixtures containing potassium phosphate buffer (50 mM, pH 7.4), magnesium chloride (MgCl2) (3 mM), and EDTA (1 mM, pH 7.4), in the presence or absence of a three‐component cofactor mixture (NADPH‐generating system, uridine diphosphate glucuronic acid (UDPGA) [8 mM], and 3’‐phosphoadenosine 5’‐phosphosulfate [0.5 mM]). […] Supernatant fractions were analyzed by LC‐MS/MS.
To characterize substrate loss and metabolic stability, duplicate samples were analyzed by LC‐MS/MS to determine the change in substrate concentration over the incubation period. […]

Data set [3] can be described thus: Metabolic stability and metabolite identity, rat intestinal S9 fractions. Format: in vitro ADME. The following applies: intestinal S9 fractions, pH 7.4; 1 µM FFA, rat intestine S9 fractions; outside assay detection limits. The protocol: LC‐MS/MS analyses to assess metabolic stability and identify the transporter substrate were performed using an API 4000 QTRAP mass spectrometer (SCIEX, Framingham, MA) with electrospray ionization in positive mode. Chromatography was performed using an Atlantis dC18 analytical column (100 × 2.1 mm, 5 µm; Waters Corporation, Milford, MA). Mobile phases were 0.2% v/v formic acid in water and 0.2% v/v formic acid in acetonitrile. For metabolic stability experiments, FFA and metabolites were eluted at a flow rate of 0.6 mL/min, with a linear gradient of 20%−80% acetonitrile from 0.30−2.0 min. For transporter substrate experiments, the gradient was slightly modified to achieve suitable chromatography. The mass transitions monitored were 232.0 > 159.0 for FFA and 348.0 > 330.0 for 1ʹ‐OH‐midazolam‐d4 internal standard. […]
as §1
To characterize substrate loss and metabolic stability, duplicate samples were analyzed by LC‐MS/MS to determine the change in substrate concentration over the incubation period. The rate constant of elimination (kel, min^−1) was determined from the time course of substrate loss based on single exponential decay (A(t)=A0(‐kelt)) . Half‐life in vitro was determined by the following equation: t1/2 = 0.693/kel. The in vitro intrinsic clearance (CLint) was calculated from the rate constant of elimination as follows: CLintμL/min/mgprotein=kelmin^‐1×incubationvolume(μL)/mgproteinperincubation.
Percent loss of substrate was determined by normalizing the mean analyte peak‐area ratio at each time point to the average of four replicates at the 0‐min time point (100%).

T1 sequence (P10635 whole entry): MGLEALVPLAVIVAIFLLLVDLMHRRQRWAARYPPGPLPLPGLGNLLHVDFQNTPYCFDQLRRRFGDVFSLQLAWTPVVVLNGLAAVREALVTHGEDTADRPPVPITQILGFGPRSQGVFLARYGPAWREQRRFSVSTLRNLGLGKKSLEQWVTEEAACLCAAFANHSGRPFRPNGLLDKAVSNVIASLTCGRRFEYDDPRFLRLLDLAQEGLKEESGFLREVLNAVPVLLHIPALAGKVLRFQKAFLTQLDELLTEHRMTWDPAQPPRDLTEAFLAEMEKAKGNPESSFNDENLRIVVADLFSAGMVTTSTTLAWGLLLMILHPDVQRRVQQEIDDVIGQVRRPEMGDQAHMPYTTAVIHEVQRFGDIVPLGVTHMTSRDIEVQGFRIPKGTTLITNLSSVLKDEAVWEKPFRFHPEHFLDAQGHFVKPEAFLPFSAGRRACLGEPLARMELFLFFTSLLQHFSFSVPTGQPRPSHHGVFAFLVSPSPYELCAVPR

On to `CCNC(C)Cc1cccc(C(F)(F)F)c1` (racemic) [FFA, (RS)‐ethyl (α‐methyl‐3‐trifluoromethylphenethyl)amine], for which the “increase in FFA AUC0‐24” value in data set [1] was 166%. The “Disappearance of FFA” value on rCYP2D6 (1 μM FFA) is 97%. In addition, the FFA loss on rCYP2D6 (10 μM FFA) is given as 59%. Also, in data set [2], the half-life at 1 µM came to 30 min and the microsomal CLint at 1 µM turned out to be 11.6 µL/min/mg. For the same compound, in data set [3], the half-life at 1 µM was over 120 min and the intrinsic clearance (microsomal CLint) at 1 µM is under 2.9 µL/min/mg.

As usually defined, the half-life is the time in which the quantity being followed falls by half. As a reminder, the microsomal CLint is the rate of metabolic loss divided by the concentration.

The values above are taken from article PMC9124820, “In vitro evaluation of fenfluramine and norfenfluramine as victims of drug interactions” (Pharmacology Research & Perspectives, 2022).
